# Experimental data published in patent publication US4837228A, “Antiinflammatory and antimicrobial compounds and compositions” (The University of Mississippi, priority 1982, dated 1989).
# Read-outs that look alike come from different tables or passages of the source.
# How the values were obtained:
# Assay type in all cases: cell-based
# Aspergillus niger = experiment: agar well diffusion assay, A. niger; settings: from edge of agar well
# Procedure: (§1) Both qualitative and quantitative screens were performed. Qualitative screening was accomplished using the agar well diffusion assay technque while quantitative screening was accomplished by the two-fold (broth) serial dilution method to determine the minimum inhibitory concentration (MIC). Innoculation was accomplished with one loop-full of a 1:10 dilution of the 24-hour-old broth culture, (fungal cultures and M.smegmatis more often required 48 to 72 hours of incubation) of the test organisms in sterile water. Streptomycin sulfate was used as a positive control for antibacterial activity while amphitericin B was used as an antifungal positive control. Organisms utilized in the screens included gram-positive, gram-negative, and acid-fast bacteria as well as different types of fungi. […] An intermediate type activity is seen where R is hydrogen. However, where R is lengthened up to C15 a decrease in activity was noted. Total saturation of the two double bonds in the compounds having a methyl side chain lead, in most cases, to an increase in both antifungal and antibacterial activity.
# [1] = system: Trichophyton mentagrophytes; experiment: MIC, two-fold (broth) serial dilution, T. mentagrophytes
# Procedure: as §1
# Candida albicans [2] = experiment: MIC, two-fold (broth) serial dilution, C. albicans
# Procedure: as §1
# Staphylococcus aureus [3] = experiment: agar well diffusion assay, S. aureus; settings: from edge of agar well
# Procedure: as §1
# [4] = system: Trichophyton mentagrophytes; experiment: agar well diffusion assay, T. mentagrophytes; settings: for width of inhibition zone: from edge of agar well
# Procedure: as §1
# Mycobacterium smegmatis [5] = experiment: agar well diffusion assay, M. smegmatis; settings: from edge of agar well
# Procedure: as §1
# Saccharomyces cerevisiae [6] = experiment: agar well diffusion assay, S. cerevisiae; settings: from edge of agar well
# Procedure: as §1
# Bacillus subtilis [7] = experiment: MIC, two-fold (broth) serial dilution, B. subtilis; settings: Bacillus subtilis, read-out: MIC
# Procedure: as §1
# Mycobacterium smegmatis [8] = experiment: MIC, two-fold (broth) serial dilution, M. smegmatis
# Procedure: as §1
# Candida albicans [9] = experiment: agar well diffusion assay, C. albicans; settings: from edge of agar well
# Procedure: as §1
# Staphylococcus aureus [10] = experiment: MIC, two-fold (broth) serial dilution, S. aureus; settings: Staphylococcus aureus, read-out: MIC
# Procedure: as §1
# Saccharomyces cerevisiae [11] = experiment: MIC, two-fold (broth) serial dilution, S. cerevisiae
# Procedure: as §1
# [12] = system: erythrocyte (heat-induced hemolysis); experiment: erythrocyte membrane stabilization assay (heat-induced erythrocyte hemolysis); settings: Erythrocyte, 1 × 10^-4 M
# Procedure: The published procedure (Proc. Soc. Exp. Biol. Med. 1967; 125; 837-842 Brow et al) for in vitro assay for antiinflammatory agents based on stabilization of erythrocytes was used. All compounds were prepared for administration by dissolving in physiologic saline or suspending in 2% ethanol in saline and the pH adjusted to 7.4 The concentrations tested in one series are given in Table 8. Aspirin (ASA) and phenylbutazone were used as positive controls for comparison of activity. Tests using this procedure were successfully and repeatedly using either 40% or 20% RBC suspensions.
# Pseudomonas aeruginosa = experiment: agar well diffusion assay, Ps. aeruginosa; settings: from edge of agar well
# Procedure: as §1
# Escherichia coli = experiment: agar well diffusion assay, E. coli; settings: from edge of agar well
# Procedure: as §1
# Bacillus subtilis [13] = experiment: agar well diffusion assay, B. subtilis; settings: from edge of agar well
# Procedure: as §1
# [14] = Trichophyton mentagrophytes, 48 h, read-out: MIC
# [15] = Trichophyton mentagrophytes, 72 h, read-out: MIC
# [16] = Mycolicibacterium smegmatis, 24 h, read-out: MIC
# [17] = Mycolicibacterium smegmatis, 48 h, read-out: MIC
# [18] = 48 hr, listed as Iso CBC (VIII)
# [19] = 72 hr, listed as Iso CBC (VIII)
SMILES,width of inhibition zone (Aspergillus niger; 48 hr) [mm],"MIC [1, 14] [µg/mL]","MIC [1, 15] [µg/mL]",width of inhibition zone (Staphylococcus aureus [3]; 24 hr) [mm],width of inhibition zone (Staphylococcus aureus [3]; 48 hr) [mm],width of inhibition zone (Mycobacterium smegmatis [5]; 24 hr) [mm],width of inhibition zone (Mycobacterium smegmatis [5]; 48 hr) [mm],width of inhibition zone (Saccharomyces cerevisiae [6]; 48 hr) [mm],width of inhibition zone (Saccharomyces cerevisiae [6]; 72 hr) [mm],MIC (Mycobacterium smegmatis [8]; [16]) [µg/mL],MIC (Mycobacterium smegmatis [8]; [17]) [µg/mL],width of inhibition zone (Candida albicans [9]; 48 hr) [mm],width of inhibition zone (Candida albicans [9]; 72 hr) [mm],MIC (Staphylococcus aureus [10]; 24 h) [µg/mL],MIC (Staphylococcus aureus [10]; 48 h) [µg/mL],width of inhibition zone (Pseudomonas aeruginosa; 24 hr) [mm],width of inhibition zone (Escherichia coli; 24 hr) [mm],width of inhibition zone (Escherichia coli; 48 hr) [mm],width of inhibition zone (Bacillus subtilis [13]; 24 hr) [mm],width of inhibition zone (Bacillus subtilis [13]; 48 hr) [mm],further results
"CC(C)=CCCC1(C)C=Cc2c(O)cccc2O1 (stereo not drawn) [CBC (VI), 2-methyl-2-(4'-methyl-pent-3'-enyl)-5-hydroxychromene]",9.,25,25,15.,15.,20.,18.,10.,8.,12.5,12.5,7.,5.,12.5,12.5,3.,3.,2.,10.,10.,"width of inhibition zone (Aspergillus niger; 72 hr): 5. mm; MIC ([1]; 48 hr): 25.0 µg/mL; MIC ([1]; 72 hr): 25.0 µg/mL; MIC (Candida albicans [2]; 48 hr): 50.0 µg/mL; MIC (Candida albicans [2]; 72 hr): 50.0 µg/mL; MIC (Candida albicans [2]; Candida albicans, 48 h, read-out: MIC): 50 µg/mL; MIC (Candida albicans [2]; Candida albicans, 72 h, read-out: MIC): 50 µg/mL; width of inhibition zone ([4]; 48 hr): 20. mm; width of inhibition zone ([4]; 72 hr): 19. mm; MIC (Bacillus subtilis [7]; 24 h): 6.25 µg/mL; MIC (Bacillus subtilis [7]; 48 h): 12.5 µg/mL; MIC (Saccharomyces cerevisiae [11]; 48 hr): 25.0 µg/mL; MIC (Saccharomyces cerevisiae [11]; 72 hr): 25.0 µg/mL; MIC (Saccharomyces cerevisiae [11]; Saccharomyces cerevisiae, 48 h, read-out: MIC): 25 µg/mL; MIC (Saccharomyces cerevisiae [11]; Saccharomyces cerevisiae, 72 h, read-out: MIC): 25 µg/mL; inhibition at 100 µM ([12]; Table 8, read-out: inhibition of heat-induced erythrocyte hemolysis): 69%"
"CC(C)=CCCC1(C)C=Cc2ccc(O)cc2O1 (stereo not drawn) [Iso CBC (VII), 2-methyl-2(4'-methyl-pent-3'-enyl)-7-hydroxychromene]",1.,6.25,6.25,10.,10.,6.,4.,2.,2.,25,25,3.,2.,12.5,12.5,4.,2.,2.,10.,7.,"MIC (Candida albicans [2]; [18]): 12.5 µg/mL; MIC (Candida albicans [2]; [19]): 25 µg/mL; agar well diffusion result in words ([4]; one entry across 48 hr and 72 hr): No growth; width of inhibition zone (Mycobacterium smegmatis [5]; 24 hr, listed as Iso CBC (VIII)): 5. mm; width of inhibition zone (Mycobacterium smegmatis [5]; [18]): 5. mm; width of inhibition zone (Saccharomyces cerevisiae [6]; [18]): 4. mm; width of inhibition zone (Saccharomyces cerevisiae [6]; [19]): 4. mm; MIC (Mycobacterium smegmatis [8]; 24 hr): 12.5 µg/mL; MIC (Mycobacterium smegmatis [8]; 48 hr): 12.5 µg/mL; width of inhibition zone (Candida albicans [9]; [18]): 4. mm; width of inhibition zone (Candida albicans [9]; [19]): 5. mm; inhibition at 100 µM ([12]; read-out: inhibition of heat-induced erythrocyte hemolysis, Table 8): 43%; width of inhibition zone (Pseudomonas aeruginosa; 48 hr): 4. mm"
